Test results from patent publication US8420655B2, “Benzimidazole inhibitors of leukotriene production” (Boehringer Ingelheim International GmbH, priority 2009, dated 2013).

The compounds below were run against T1, recombinant human FLAP protein (Homo sapiens, UniProt P20292) (assay: FLAP binding assay, displacement of iodinated (125I) FLAP inhibitor, Scintillation Proximity Assay format). Details: [125I]L-691,831 probe, membrane protein from sf9 cells; read-out: hFLAP binding IC50.
T1 construct: made in house; host or cells: Sf9 insect cells (membrane fraction, 100,000 x g pellet)
T1 sequence (P20292 1-161): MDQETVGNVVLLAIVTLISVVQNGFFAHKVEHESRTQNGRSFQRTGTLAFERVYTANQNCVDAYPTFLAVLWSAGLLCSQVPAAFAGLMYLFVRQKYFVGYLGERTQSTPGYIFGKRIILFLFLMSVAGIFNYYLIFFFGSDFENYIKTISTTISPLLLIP
Procedure: Compounds are assessed for the ability to bind to FLAP in a binding assay that measures compound-specific displacement of an iodinated (^125I) FLAP inhibitor via a Scintillation Proximity Assay format (adapted from S. Charleson et al., Mol. Pharmacol., 1992, 41, 873-879).
Cell pellets produced from sf9 insect cells expressing recombinant human FLAP protein are resuspended in buffer A [15 mM Tris-HCl (pH 7.5), 2 mM MgCl2, 0.3 mM EDTA, 1 mM PMSF]. The cells are lysed with a Dounce homogenizer and the material is centrifuged at 10,000×g for 10 minutes. The supernatant is then collected and centrifuged at 100,000×g for 60 minutes. To prepare membrane protein for an assay, an aliquot of the 100,000×g pellet is resuspended in 1 ml of buffer A, Dounce homogenized, and finally subjected to polytron mixing (30 seconds). Membrane protein (25 μl, 5 μg) is mixed with WGA SPA beads (Amersham) and stirred for 1 h. To an assay plate (Perkin Elmer FlexiPlate) is added 25 μl of test compound prepared in Binding buffer [100 mM Tris (pH 7.5), 140 mM NaCl, 5% glycerol, 2 mM EDTA, 0.5 mM TCEP, 0.05% Tween 20], 25 μl of [^125I]L-691,831 (an iodinated analog of MK-591, Charleson et al. Mol. Pharmacol., 41, 873-879, 1992) and finally 50 μl of the bead/protein mixture. (final concentrations: beads, 200 μg/well; protein, 5 μg/well; [^125I] probe, 0 08 nM/well (17 nCi/well). The plates are shaken for 2 h before reading on a Microbeta plate reader. Non-specific binding is determined by the addition of 10 μM cold L-691,831 compound.

Row | Structure (SMILES) | IC50
1 | COC(=O)C(C)(C)Oc1ccc(-c2nc3cc(-c4cnc(N)nc4)ccc3n2C(C)(C)C)c(-n2cncn2)c1 [2-{4-[5-(2-Amino-pyrimidin-5-yl)-1-tert-butyl-1H-benzoimidazol-2-yl]-3-[1,2,4]triazol-1-yl-phenoxy}-2-methyl-propionic acid methyl ester] | 7.2 nM
2 | CC(C)(C)n1c(-c2cc(-c3csc(C(=O)O)c3)ccc2-n2cncn2)nc2cc(-c3cnc(N)nc3)ccc21 [4-{3-[5-(2-Amino-pyrimidin-5-yl)-1-tert-butyl-1H-benzoimidazol-2-yl]-4-[1,2,4]triazol-1-yl-phenyl}-thiophene-2-carboxylic acid] | 10.6 nM
3 | CC(C)(C)n1c(-c2ccccc2-n2cncn2)nc2cc(-c3cnc4c(c3)CCN4)ccc21 [1-tert-Butyl-5-(2,3-dihydro-1H-pyrrolo[2,3-b]pyridin-5-yl)-2-(2-1,2,4-triazol-1-yl-phenyl)-1H-benzimidazole] | 2.1 nM
4 | CC(C)(C)n1c(-c2cc(I)ccc2-n2cncn2)nc2cc(-c3cnc(N)nc3)ccc21 [5-[1-tert-Butyl-2-(5-iodo-2-1,2,4-triazol-1-yl-phenyl)-1H-benzimidazol-5-yl]-pyrimidin-2-ylamine] | 2.7 nM
5 | COc1ccc(-n2cccn2)c(-c2nc3cc(-c4cnc(N)nc4)ccc3n2C(C)(C)C)c1 [5-[1-tert-Butyl-2-(5-methoxy-2-pyrazol-1-yl-phenyl)-1H-benzimidazol-5-yl]-pyrimidin-2-ylamine] | 5.2 nM
6 | CCCCC/C(=C\C(=O)OC)c1ccc(-n2cncn2)c(-c2nc3cc(-c4cnc(N)nc4)ccc3n2C(C)(C)C)c1 [(E)-3-{3-[5-(2-Amino-pyrimidin-5-yl)-1-tert-butyl-1H-benzoimidazol-2-yl]-4-[1,2,4]triazol-1-yl-phenyl}-oct-2-enoic acid methyl ester] | 28 nM
7 | CC(C)(C)n1c(-c2ccccc2-n2cncn2)nc2cc(-c3cnc(N)nc3)ccc21 | 2.7 nM
8 | COC(=O)c1ccc(-n2cncn2)c(-c2nc3cc(-c4cnc(N)nc4)ccc3n2C(C)(C)C)c1 [3-[5-(2-Amino-pyrimidin-5-yl)-1-tert-butyl-1H-benzoimidazol-2-yl]-4-[1,2,4]triazol-1-yl-benzoic acid methyl ester] | 2.7 nM
9 | Cc1ccnn1-c1ccc(C#N)cc1-c1nc2cc(-c3cnc(N)nc3)ccc2n1C(C)(C)C [3-[5-(2-Amino-pyrimidin-5-yl)-1-tert-butyl-1H-benzoimidazol-2-yl]-4-(5-methyl-pyrazol-1-yl)-benzonitrile] | 1.3 nM
10 | COc1ccc(-n2ncnc2C)c(-c2nc3cc(-c4cnc(N)nc4)ccc3n2C(C)(C)C)c1 [5-{1-tert-Butyl-2-[5-methoxy-2-(5-methyl-1,2,4-triazol-1-yl)-phenyl]-1H-benzimidazol-5-yl}-pyrimidin-2-ylamine] | 1.5 nM
11 | CCNC(=O)c1ncn(-c2ccc(C#N)cc2-c2nc3cc(-c4cnc(N)nc4)ccc3n2C(C)(C)C)n1 [1-{2-[5-(2-Amino-pyrimidin-5-yl)-1-tert-butyl-1H-benzoimidazol-2-yl]-4-cyano-phenyl}-1H-[1,2,4]triazole-3-carboxylic acid ethylamide] | 29.5 nM
12 | CCNC(=O)Oc1ccc(-n2cncn2)c(-c2nc3cc(-c4cnc(N)nc4)ccc3n2C(C)(C)C)c1 [Ethyl-carbamic acid 3-[5-(2-amino-pyrimidin-5-yl)-1-tert-butyl-1H-benzimidazol-2-yl]-4-1,2,4-triazol-1-yl-phenyl ester] | 1.1 nM
13 | COc1ccc(-c2csc(C)n2)c(-c2nc3cc(-c4cnc(N)nc4)ccc3n2C(C)(C)C)c1 [5-{1-tert-Butyl-2-[5-methoxy-2-(2-methyl-thiazol-4-yl)-phenyl]-1H-benzimidazol-5-yl}-pyrimidin-2-ylamine] | 1.7 nM
14 | Cn1nnc(-c2ccccc2-c2nc3cc(-c4cnc(N)nc4)ccc3n2C(C)(C)C)n1 [5-{1-tert-Butyl-2-[2-(2-methyl-2H-tetrazol-5-yl)-phenyl]-1H-benzimidazol-5-yl}-pyrimidin-2-ylamine] | 1.3 nM
15 | COc1ccc(-n2cncn2)c(-c2nc3cc(-c4cnc(N)nc4)ccc3n2C(C)(C)C)c1 [5-[1-tert-Butyl-2-(5-methoxy-2-1,2,4-triazol-1-yl-phenyl)-1H-benzimidazol-5-yl]-pyrimidin-2-ylamine] | 1.7 nM
16 | CC(C)(C)n1c(-c2cc(OC3CCOC3)ccc2-n2cncn2)nc2cc(-c3cnc(N)nc3)ccc21 (centres unmarked) [5-{1-tert-Butyl-2-[5-(tetrahydro-furan-3-yloxy)-2-1,2,4-triazol-1-yl-phenyl]-1H-benzimidazol-5-yl}-pyrimidin-2-ylamine] | 6.9 nM

Row | Structure (SMILES) | IC50
17 | CC(C)(COc1ccc(-c2nc3cc(-c4cnc(N)nc4)ccc3n2C(C)(C)C)c(-n2cncn2)c1)C(=O)O [3-{4-[5-(2-Amino-pyrimidin-5-yl)-1-tert-butyl-1H-benzoimidazol-2-yl]-3-[1,2,4]triazol-1-yl-phenoxy}-2,2-dimethyl-propionic acid] | 4 nM
18 | Cc1noc(-c2ccc(Cl)cc2-c2nc3cc(-c4cnc(N)nc4)ccc3n2C(C)(C)C)n1 [5-{1-tert-Butyl-2-[5-chloro-2-(3-methyl-1,2,4-oxadiazol-5-yl)-phenyl]-1H-benzimidazol-5-yl}-pyrimidin-2-ylamine] | 1.9 nM
19 | Cc1ccc(-c2nc(C)no2)c(-c2nc3cc(-c4cnc(N)nc4)ccc3n2C(C)(C)C)c1 [5-{1-tert-Butyl-2-[5-methyl-2-(3-methyl-1,2,4-oxadiazol-5-yl)-phenyl]-1H-benzimidazol-5-yl}-pyrimidin-2-ylamine] | 1.8 nM
20 | COc1ccc(-n2ccc(C)n2)c(-c2nc3cc(-c4cnc(N)nc4)ccc3n2C(C)(C)C)c1 [5-{1-tert-Butyl-2-[5-methoxy-2-(3-methyl-pyrazol-1-yl)-phenyl]-1H-benzimidazol-5-yl}-pyrimidin-2-ylamine] | 8.8 nM
21 | Cc1ccc(-n2cncn2)c(-c2nc3cc(-c4cnc(N)nc4)ccc3n2C(C)(C)C)c1 | 1.6 nM
22 | Cc1ncnn1-c1ccccc1-c1nc2cc(-c3cnc(N)nc3)ccc2n1C(C)(C)C [5-{1-tert-Butyl-2-[2-(5-methyl-1,2,4-triazol-1-yl)-phenyl]-1H-benzimidazol-5-yl}-pyrimidin-2-ylamine] | 3.3 nM
23 | CC(C)(C)n1c(-c2cc(Cl)ccc2-n2cccn2)nc2cc(-c3cnc(N)nc3)ccc21 [5-[1-tert-Butyl-2-(5-chloro-2-pyrazol-1-yl-phenyl)-1H-benzimidazol-5-yl]-pyrimidin-2-ylamine] | 1.3 nM
24 | CC(C)(C)n1c(-c2cc(Br)ccc2-n2cncn2)nc2cc(-c3cnc(N)nc3)ccc21 [5-[2-(5-Bromo-2-1,2,4-triazol-1-yl-phenyl)-1-tert-butyl-1H-benzimidazol-5-yl]-pyrimidin-2-ylamine] | 4.5 nM
25 | Cn1ncnc1-c1ccc(Cl)cc1-c1nc2cc(-c3cnc(N)nc3)ccc2n1C(C)(C)C [5-{1-tert-Butyl-2-[5-chloro-2-(2-methyl-2H-1,2,4-triazol-3-yl)-phenyl]-1H-benzimidazol-5-yl}-pyrimidin-2-ylamine] | 1.2 nM
26 | CC(C)(C)n1c(-c2ccc(OC3CCOC3)cc2-n2cncn2)nc2cc(-c3cnc(N)nc3)ccc21 (centres unmarked) [5-{1-tert-Butyl-2-[4-(tetrahydro-furan-3-yloxy)-2-1,2,4-triazol-1-yl-phenyl]-1H-benzimidazol-5-yl}-pyrimidin-2-ylamine] | 10.6 nM
27 | Cc1c(-c2ccc(-n3cncn3)c(-c3nc4cc(-c5cnc(N)nc5)ccc4n3C(C)(C)C)c2)cnn1C [5-{1-tert-Butyl-2-[5-(1,5-dimethyl-1H-pyrazol-4-yl)-2-[1,2,4]triazol-1-yl-phenyl]-1H-benzoimidazol-5-yl}-pyrimidin-2-ylamine] | 4 nM
28 | Cc1ccc(-n2cnc(C)n2)c(-c2nc3cc(-c4cnc(N)nc4)ccc3n2C(C)(C)C)c1 | 1.7 nM
29 | Cc1ncnn1-c1ccc(Cl)cc1-c1nc2cc(-c3cnc(N)nc3)ccc2n1C(C)(C)C [5-{1-tert-butyl-2-[5-chloro-2-(5-methyl-1,2,4-triazol-1-yl)-phenyl]-1H-benzimidazol-5-yl}-pyrimidin-2-ylamine] | 6.9 nM
30 | COc1ccc(-n2cc(Cl)cn2)c(-c2nc3cc(-c4cnc(N)nc4)ccc3n2C(C)(C)C)c1 [5-{1-tert-Butyl-2-[2-(4-chloro-pyrazol-1-yl)-5-methoxy-phenyl]-1H-benzimidazol-5-yl}-pyrimidin-2-ylamine] | 1.6 nM
31 | Cc1ncn(-c2ccccc2-c2nc3cc(-c4cnc(N)nc4)ccc3n2C(C)(C)C)n1 [5-{1-tert-Butyl-2-[2-(3-methyl-1,2,4-triazol-1-yl)-phenyl]-1H-benzimidazol-5-yl}-pyrimidin-2-ylamine] | 1.6 nM
32 | COc1ccc(-n2cnc(C)n2)c(-c2nc3cc(-c4cnc(N)nc4)ccc3n2C(C)(C)C)c1 [5-{1-tert-Butyl-2-[5-methoxy-2-(3-methyl-1,2,4-triazol-1-yl)-phenyl]-1H-benzimidazol-5-yl}-pyrimidin-2-ylamine] | 2.2 nM
